From patent US6448405B1, “Steroid receptor modulator compounds and methods” (Ligand Pharmaceuticals Incorporated, priority 1994, dated 2002)

What was measured:
[1] = biological target: T1, human progesterone receptor A form (PR-A) (Homo sapiens, UniProt P06401); test: PR binding assay, baculovirus extract, [3H] progesterone; settings: read-out: PR Binding Ki
T1 sequence (P06401 1-769 isoform P06401-2): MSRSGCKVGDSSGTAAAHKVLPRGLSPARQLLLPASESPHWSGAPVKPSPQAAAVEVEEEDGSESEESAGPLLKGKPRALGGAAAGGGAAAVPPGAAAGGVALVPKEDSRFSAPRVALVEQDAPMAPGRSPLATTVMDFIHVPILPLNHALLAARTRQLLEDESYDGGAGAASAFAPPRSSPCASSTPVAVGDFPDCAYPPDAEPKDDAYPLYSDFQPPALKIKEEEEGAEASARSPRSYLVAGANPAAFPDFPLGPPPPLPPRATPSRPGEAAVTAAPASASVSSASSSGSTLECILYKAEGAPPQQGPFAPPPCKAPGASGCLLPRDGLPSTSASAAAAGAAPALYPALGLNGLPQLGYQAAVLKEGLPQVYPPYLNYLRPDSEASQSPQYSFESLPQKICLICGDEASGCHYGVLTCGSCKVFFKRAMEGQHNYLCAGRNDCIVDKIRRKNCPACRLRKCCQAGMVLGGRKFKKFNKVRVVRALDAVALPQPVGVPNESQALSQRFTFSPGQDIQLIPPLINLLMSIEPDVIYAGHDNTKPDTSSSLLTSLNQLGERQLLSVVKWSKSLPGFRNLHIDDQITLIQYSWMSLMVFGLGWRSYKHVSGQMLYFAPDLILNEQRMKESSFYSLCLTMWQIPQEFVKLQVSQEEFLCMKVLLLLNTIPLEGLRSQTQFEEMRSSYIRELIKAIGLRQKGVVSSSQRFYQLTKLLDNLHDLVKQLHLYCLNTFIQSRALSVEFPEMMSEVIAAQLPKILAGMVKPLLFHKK

human PR-B = biological target: T2, human PR-B (Homo sapiens, UniProt P06401); test: Co-transfection assay, PR agonist and antagonist activity, CV-1 cells; type: cell-based;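 note: luciferase reporter driven by a hormone response element, co-transfected with human PR-B into CV-1 monkey kidney cells, agonists raise and antagonists lower the reporter signal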
T2 construct: expressed in transfected cells; host or cells: CV-1 cells (African green monkey kidney fibroblasts), transient transfection
T2 sequence (P06401 1-933): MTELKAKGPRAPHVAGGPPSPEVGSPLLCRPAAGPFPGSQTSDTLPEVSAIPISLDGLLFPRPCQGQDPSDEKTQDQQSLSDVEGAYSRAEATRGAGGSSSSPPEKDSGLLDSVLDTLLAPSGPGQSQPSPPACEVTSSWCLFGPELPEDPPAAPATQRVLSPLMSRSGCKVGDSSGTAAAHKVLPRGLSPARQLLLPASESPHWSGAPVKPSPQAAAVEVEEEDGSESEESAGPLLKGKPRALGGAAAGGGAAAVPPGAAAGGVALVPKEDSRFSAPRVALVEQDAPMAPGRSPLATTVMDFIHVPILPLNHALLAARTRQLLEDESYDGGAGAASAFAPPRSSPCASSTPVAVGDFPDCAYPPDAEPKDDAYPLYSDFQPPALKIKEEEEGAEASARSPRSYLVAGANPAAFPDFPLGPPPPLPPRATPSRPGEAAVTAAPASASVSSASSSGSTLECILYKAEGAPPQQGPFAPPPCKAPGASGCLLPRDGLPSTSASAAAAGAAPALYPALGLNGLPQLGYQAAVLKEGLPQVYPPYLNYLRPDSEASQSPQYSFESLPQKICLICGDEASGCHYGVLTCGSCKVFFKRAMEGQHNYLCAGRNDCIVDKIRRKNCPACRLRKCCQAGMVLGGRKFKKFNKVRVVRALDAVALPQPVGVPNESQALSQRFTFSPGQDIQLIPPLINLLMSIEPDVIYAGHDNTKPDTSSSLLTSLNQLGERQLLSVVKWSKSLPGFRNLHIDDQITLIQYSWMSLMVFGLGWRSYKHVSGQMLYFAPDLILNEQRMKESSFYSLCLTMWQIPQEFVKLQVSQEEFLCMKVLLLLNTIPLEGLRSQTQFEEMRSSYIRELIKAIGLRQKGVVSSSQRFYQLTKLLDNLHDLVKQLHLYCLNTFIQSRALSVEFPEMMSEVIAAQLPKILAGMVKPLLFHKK

[2] = system: pregnancy (implantation sites) in female mice (ICR strain); test: Implantation assay (antiprogestin activity); type: in vivo, mouse; settings: R5020 1.0 mg per day
Procedure: Mating was assumed to have taken place at 02.00 h, time 0.
Compound 150 was dissolved in sesame oil (50 mg/mL) and kept at room temperature before use. […] Control animals received an equivuivalent volume of the control vehicle, sesame oil, alone.
The animals were sacrificed, and autopsies were carried out at Day 8 of pregnancy, and numbers of implantation sites counted and recorded, and are shown in Table 7 below. Each group consisted of between 5 and 7 animals.

PR, AR, ER, GR and MR = test: cis-trans or co-transfection assay, steroid receptor panel (cross-reactivity); type: cell-based, human; settings: as seen in the Tables

SMILES: CC1=CC(C)(C)Nc2ccc(-c3cccc(C#N)c3)cc21 [Compound 150, 6-(3-Cyanophenyl)-1,2-dihydro-2,2,4-trimethylquinoline]
- Ki [1]: 17 nM
- EC50 (human PR-B; agonist mode, EC50, read-out: PR Agonist CV-1 Cells Potency): 3200 nM
- IC50 (human PR-B; read-out: PR Antagonist CV-1 Cells Potency): 24 nM
- effect on pregnancy rate with simultaneous injection of PR agonist R5020 [2]: reversed to the control level
- steroid receptor selectivity profile (PR, AR, ER, GR and MR): highly selective PR antagonists
